Counter-ions that a name gives are not always drawn. Like-named read-outs stand apart in the source and are kept apart here.
Tests used:
BK2 receptor = biological target: T1, BK2 receptor (Cavia porcellus, UniProt O70526); test: competition with tritiated bradykinin (3H-BK) for BK2 receptor sites in guinea pig ileum; format: binding; conditions: for Activity (reference compounds, 3H-BK binding): screened at 100 μM
T1 construct: The distal portion of the ileum is removed and placed in ice cold homogenization buffer; from tissue; host or cells: distal ileum of adult male Hartley strain guinea pig, washed 50,000×g pellet of homogenate
T1 sequence (O70526 1-372): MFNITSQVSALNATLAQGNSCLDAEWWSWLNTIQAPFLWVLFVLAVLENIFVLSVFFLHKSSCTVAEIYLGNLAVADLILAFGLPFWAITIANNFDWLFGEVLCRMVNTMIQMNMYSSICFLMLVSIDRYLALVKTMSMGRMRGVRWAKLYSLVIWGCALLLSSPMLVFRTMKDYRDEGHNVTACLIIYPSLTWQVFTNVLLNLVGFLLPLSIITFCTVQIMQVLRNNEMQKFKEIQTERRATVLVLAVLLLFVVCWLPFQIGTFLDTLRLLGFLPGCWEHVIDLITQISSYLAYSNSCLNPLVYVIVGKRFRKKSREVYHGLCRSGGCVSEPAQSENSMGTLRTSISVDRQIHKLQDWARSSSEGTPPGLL
Experimental: This assay is employed to identify compounds which compete specifically with tritiated bradykinin (^3 H-BK) for BK2 receptor sites in guinea pig ileum.
The assay is carried out as follows:
A 350-500 g adult male Hartley strain guinea pig is euthanized by stunning followed by decapitation. The distal portion of the ileum is removed and placed in ice cold homogenization buffer [25 mM N-tris(hydroxymethyl)methyl-2-aminoethane sulfonic acid (TES) 1 mM 1,10-phenanthroline, adjusted to pH 6.8 with NH4 OH]. The contents of the ileal lumen are rinsed out with cold homogenization buffer. The tissue is cut into small pieces and homogenized in 20 volumes of homogenization buffer using a Brinkmann Polytron homogenizer equipped with a PTA 10 TS generator. The tissue is homogenized for 10 seconds, three times, at setting 5.
The homogenate is filtered through a surgical gauze sponge and centrifuged at 50,000×g for 20 minutes at 4° C. The supernatant fluid is discarded and the homogenization and centrifugation procedure is repeated. After discarding the supernatant fluid, the final pellet is resuspended in 40 volumes of assay buffer [25 mM TES, pH=6.8, 1 mM 1,10-phenanthroline, 1 mM dithiothreitol, 2 μM captopril, 140 μg/ml bacitracin and 0.1% bovine serum albumin (BSA)]. The homogenate is filtered once more through a surgical gauze sponge and kept on ice until use.
The assay is performed using only polypropylene pipet tips and polypropylene test tubes. Each tube receives 100 μl of 800 pM ^3 H-BK, 100 μl of the test compound solution or vehicle (TES assay buffer), and 100 μl of 25 mg/ml tissue homogenate in a total volume of 1 ml. The final concentration of ^3 H-BK is 80 pM. The final tissue concentration is 2.5 mg/ml. Compounds are screened at 100 μM. Nonspecific binding is determined in the presence of 1 μM unlabeled bradykinin. All determinations are made in triplicate. Three 100 μl aliquots of the 800 pM 3 H-BK working solution are added directly to scintillation vials to determine the total added radioactivity.
The tubes are incubated for 90 minutes at 25° C. while being gently agitated on an orbital shaker. Bound ligand is separated from free ligand, using Whatman GF/B glass fiber filters (pretreated with 0.1% aqueous polyethyleneimine made neutral with HCl). A Brandel receptor binding harvester is used. Assay tubes and glass fiber filters are rinsed three times with 3 ml of cold physiological saline.
The filter discs are transferred to 20 ml scintillation vials. Ten ml of aqueous sample LSC cocktail (Aquassure, New England Nuclear) is added to each vial. After capping, the vials are agitated for 5 minutes on an orbital shaker. The samples are counted for ten minutes in a refrigerated liquid scintillation counter.
The following values are obtained:
Bx Total binding in the presence of the test compound
C Control specific binding. C=Bt -Bns
D Specific binding in the presence of the test compound. D=Bx -Bns
Percent of control: D/C×100
Percent Inhibition: (1-D/C)×100
After calculation of Percent of Control for each dilution, the values are analyzed and the IC50 with its 95% confidence limits is determined on a Hewlett Packard 9816 computer using the program "PS-NONLIN" (generalizednon-linear regression with inverse prediction and graphics).

[1] = tested on: bradykinin-induced writhing response; test: inhibition of the writhing response induced in mice by exogenous administration of bradykinin; format: in vivo, mice (male CD-1)
[2] = guinea pig ileum homogenate, 80 pM 3H-BK
[3] = guinea pig ileum homogenate, 80 pM 3H-BK, 90 min, 25° C., pH 6.8, read-out: IC50
[4] = 30 mg/kg i.p., bradykinin 0.5 mg/kg i.p. after PGE2
[5] = bradykinin 0.5 mg/kg i.p. after PGE2

Question: For `CCCCN1CCC(N(Cc2ccc(Nc3ccnc4cc(Cl)ccc34)cc2)C(=O)C(F)(F)C(F)(F)C(F)(F)F)CC1.Cl` [Example 6, N-(1-Butyl-4-piperidinyl)-N-[[4-[(7-chloro-4-quinolinyl)amino]phenyl]-methyl]-2,2,3,3,4,4,4-heptafluorobutanamide, hydrochloride], which IC50 (BK2 receptor) is on record?
Answer: 4.3 µM

Question: And the “% Inhibition at 30 mg/kg i.p.” value ([1]; mouse, in vivo)?
Answer: 68.0%

Question: How did the “Activity (reference compounds, 3H-BK binding)” value (BK2 receptor; [2]) turn out when “Des Arg^9 --BK: BK1 Agonist (RPPGFSPF; Bradykinin; UniProt P01042 381-388, looked up, fragment) [reference compound]” was run?
Answer: No Activity

Question: For “DesArg^9 --Leu^8 BK: BK1 Antagonist [reference compound]”, which “Activity (reference compounds, 3H-BK binding)” value (BK2 receptor; [2]) is on record?
Answer: No Activity

Question: Which results are given for `CCCCN1CCC(N(Cc2ccc(Nc3ccnc4cc(Cl)ccc34)cc2)C(C)=O)CC1` [Example 2, N-(1-Butyl-4-piperidinyl)-N-[[4-[(7-chloro-4-quinolinyl)amino]phenyl]methyl]acetamide]?
Answer: IC50 (BK2 receptor; [3]): 6 µM; % Inhibition at 30 mg/kg i.p. [1, 4]: 51.0%; % Inhibition at 200 mg/kg p.o. [1, 5]: 26.0%

Question: With `CN1CC[C@]23c4c5ccc(O)c4O[C@H]2[C@@H](O)C=C[C@H]3[C@H]1C5` [Morphine, reference compound] as the molecule, how does the ED50 ([1]; Mus musculus, po) read?
Answer: 4.5 mg/kg

Question: With `CCN(CC)C(=O)c1ccc(CN2CCC(NCc3ccc(Nc4ccnc5cc(Cl)ccc45)cc3)CC2)cc1.Cl` [Example 9, 4-[[4-[[[4-[(7-Chloro-4-quinolinyl)amino]phenyl]methyl]amino]-1-piperidinyl]methyl]-N,N-diethylbenzamide, hydrochloride] as the molecule, how does the IC50 (BK2 receptor; [3]) read?
Answer: 0.77 µM

Question: And the “% Inhibition at 30 mg/kg i.p.” value [1, 4]?
Answer: 0.0%

Question: For `CC(C)Cc1ccc(C(C)C(=O)O)cc1` (centres unmarked) [Ibuprofen, reference compound], which “% inhibition of writhing” value ([1]; at 200 mg/kg p.o. (reference compound ibuprofen)) is on record?
Answer: 43%

Question: For `CCCCCCCCCCCC(=O)N(Cc1ccc(Nc2ccnc3cc(Cl)ccc23)cc1)C1CCN(CCCCCC(=O)N(CC)CC)CC1.Cl` [Example 16, 4-[[[4-[(7-Chloro-4-quinolinyl)amino]phenyl]methyl](1-oxododecyl)-amino]-N,N-diethyl-1-piperidinehexanamide, hydrochloride], which IC50 (BK2 receptor; [3]) is on record?
Answer: 3.8 µM

Question: What about the “% Inhibition at 30 mg/kg i.p.” value [1, 4] of the same molecule?
Answer: 30%

Question: How did the IC50 (BK2 receptor; [3]) turn out when `CCN(CC)C(=O)CCCCCN1CCC(NCc2ccc(Nc3ccnc4cc(Cl)ccc34)cc2)CC1` [Example 13, 4-[[[4-[(7-Chloro-4-quinolinyl)amino]phenyl]methyl]amino]-N,N-diethyl-1-piperidinehexanamide, tris(trifluoroacetate), 0.42 hydrate] was run?
Answer: 3.9 µM

Question: What about the “% Inhibition at 30 mg/kg i.p.” value [1, 4] of the same molecule?
Answer: 43%

Question: With `CC(=O)Nc1ccc(O)cc1` [Acetaminophen, reference compound] as the molecule, how does the “% inhibition of writhing” value ([1]; at 300 mg/kg p.o. (reference compound acetaminophen)) read?
Answer: 20%

Question: With `Clc1ccc2c(Nc3ccc(CNC4CCN(Cc5ccccc5)CC4)cc3)ccnc2c1` [Example 10, 7-Chloro-N-[4-[[[1-(phenylmethyl)-4-piperidinyl]amino]methyl]phenyl]-4-quinolinamine] as the molecule, how does the IC50 (BK2 receptor; [3]) read?
Answer: 4 µM

Question: What about the “% Inhibition at 30 mg/kg i.p.” value [1, 4] of the same molecule?
Answer: 2.5%

Question: `CCCCN1CCC(N(Cc2ccc(Nc3ccnc4cc(Cl)ccc34)cc2)C(=O)C(F)(F)F)CC1.Cl` [Example 7, N-(1-butyl-4-piperidinyl)-N-[[4-[(7-chloro-4-quinolinyl)amino]-phenyl]methyl]-2,2,2-trifluoroacetamide, hydrochloride] was tested. Which IC50 (BK2 receptor; [3]) did it give?
Answer: 2.4 µM

Question: And the “% Inhibition at 30 mg/kg i.p.” value [1, 4]?
Answer: 44.0%

Question: How did the IC50 (BK2 receptor; [3]) turn out when `CCCCN1CCC(N(Cc2ccc(Nc3ccnc4cc(Cl)ccc34)cc2)C(=O)CCc2ccccc2)CC1.Cl` [Example 5, N-(1-Butyl-4-piperidinyl)-N-[[4-[(7-chloro-4-quinolinyl)amino]phenyl]methyl]benzenepropanamide, hydrochloride] was run?
Answer: 1.6 µM

Question: And the “% Inhibition at 30 mg/kg i.p.” value [1, 4]?
Answer: 85.0%

Question: What about the “% Inhibition at 200 mg/kg p.o.” value [1, 5] of the same molecule?
Answer: 27.0%

Question: Which IC50 (BK2 receptor; [3]) does the source give for `CCCC(=O)N(Cc1ccc(Nc2ccnc3cc(Cl)ccc23)cc1)C1CCN(CCCCCC(=O)N(CC)CC)CC1` [Example 14, 4-[[[4-[(7-Chloro-4-quinolinyl)amino]phenyl]methyl](1-oxobutyl)amino]-N,N-diethyl-1-piperidinehexanamide, 0.56 hydrate] here?
Answer: 5.5 µM

Question: What about the “% Inhibition at 30 mg/kg i.p.” value [1, 4] of the same molecule?
Answer: 81%

Question: What about the “% Inhibition at 200 mg/kg p.o.” value [1, 5] of the same molecule?
Answer: 46%

Question: With `CCCC(=O)N(Cc1ccc(Nc2ccnc3cc(Cl)ccc23)cc1)C1CCN(Cc2ccc(C(=O)N(CC)CC)cc2)CC1` [Example 12, 4-[[4-[[[4-[(7-Chloro-4-quinolinyl)amino]phenyl]methyl]-(1-oxobutyl)amino]-1-piperidinyl]methyl]-N,N-diethylbenzamide, hydrochloride, 0.76 hydrate] as the molecule, how does the IC50 (BK2 receptor; [3]) read?
Answer: 2.7 µM

Question: And the “% Inhibition at 30 mg/kg i.p.” value [1, 4]?
Answer: 5%

Question: Which IC50 (BK2 receptor; [3]) does the source give for `CCCCN1CCC(N(Cc2ccc(Nc3ccnc4cc(Cl)ccc34)cc2)C(=O)CCC)CC1.Cl` [Example 8, N-(1-Butyl-4-piperidinyl)-N-[[4-[(7-chloro-4-quinolinyl)-amino]phenyl]methyl]butanamide, hydrochloride] here?
Answer: 1.2 µM

Question: And the “% Inhibition at 30 mg/kg i.p.” value [1, 4]?
Answer: 80.0%

Question: And the “% Inhibition at 200 mg/kg p.o.” value [1, 5]?
Answer: 58.0%

Question: For `CCCCN1CCC(N(Cc2ccc(Nc3ccnc4cc(Cl)ccc34)cc2)C(=O)c2ccccc2)CC1` [Example 4, N-(1-Butyl-4-piperidinyl)-N-[[4-[7-chloro-4-quinolinyl)amino]phenyl]methyl]benzamide, hydrochloride], which IC50 (BK2 receptor; [3]) is on record?
Answer: 2 µM

Question: And the “% Inhibition at 30 mg/kg i.p.” value [1, 4]?
Answer: 40.0%

Question: With `CCCCN1CCC(NCc2ccc(Nc3ccnc4cc(Cl)ccc34)cc2)CC1` [Example 1, N-[4-[[(1-Butyl-4-piperidinyl)amino]methyl]phenyl]-7-chloro-4-quinolinamine] as the molecule, how does the IC50 (BK2 receptor; [3]) read?
Answer: 8.4 µM

Question: And the “% Inhibition at 30 mg/kg i.p.” value [1, 4]?
Answer: 13.1%

Question: And the “% Inhibition at 200 mg/kg p.o.” value [1, 5]?
Answer: 7.1%

Question: For `CCCCN1CCC(N(Cc2ccc(Nc3ccnc4ccccc34)cc2)C(C)=O)CC1` [Example 3, N-(1-Butyl-4-piperidinyl)-N-[[4-(4-quinolinylamino)phenyl]methyl]acetamide], which IC50 (BK2 receptor; [3]) is on record?
Answer: 10.8 µM

Question: `CC(C(=O)O)c1cccc(C(=O)c2ccccc2)c1` (centres unmarked) [Ketoprofen, reference compound] was tested. Which “% inhibition of writhing” value ([1]; mouse, in vivo, po, 100 mg/kg) did it give?
Answer: 52%

Question: `O=C(c1ccccc1)N1CCC(NCc2ccc(Nc3ccnc4cc(Cl)ccc34)cc2)CC1` [Example 15, 1-Benzoyl-N-[[[4-[(7-chloro-4-quinolinyl)amino]phenyl]methyl]-4-piperidinanaminetrifluoroacetate (1:2), 1.03 hydrate] was tested. Which IC50 (BK2 receptor; [3]) did it give?
Answer: 13.8 µM

Question: What about the “% Inhibition at 30 mg/kg i.p.” value [1, 4] of the same molecule?
Answer: 43%

Question: How did the IC50 (BK2 receptor; guinea pig ileum homogenate, 80 pM 3H-BK, 90 min, 25° C., pH 6.8, read-out: IC50 (reference compounds)) turn out when “Thi^5,8 --DPhe^7 --BK [reference compound]” was run?
Answer: 0.069 µM

Source: patent US5216165A, “N-substituted aminoquinolines as analgesic agents” (American Home Products Corporation, priority 1992, dated 1993)
